Results from US10398315B2, “Method of imaging living tissue” (Agency for Science, Technology and Research, priority 2013, dated 2019).
“Also recorded” adds a separate entry of the source.

Key:
[1] = Concentration of drug in the blood calculated from pre-clinical in vivo dose from literature; details: assuming volume of blood in mice 2 ml
[2] = literature value; cited from earlier work
[3] = literature value; cited from earlier work; remark: listed apart in the source
[4] = MSOT phantom measurement of photoacoustic signal; type: physicochemical; details: 680-900 nm; for Relative PA Quantum yield (ϕP): gradient of unmixed PA signal vs concentration in phantom, arbitrary ratios; for PA signal / photoacoustic activity in phantoms: phantom, compared among the 5 photosensitizers
Procedure: In order to verify the PA activity of the photosensitizers under controlled conditions, phantom measurements for all the contrast agents were performed, in the 680-900 nm wavelength range, each at 5 different concentrations.
All phantom and in vivo mouse imaging experiments were performed using a real-time multispectral optacoustic tomographic (MSOT) imaging system; inVision 128 (iThera Medical GmbH, Neuherberg, Germany).
The phantom was made of polyurethane, cylindrical in shape with a diameter of 2 cm, which was specially designed to mimic the shape, size and optical properties of the mouse (iThera Medical GmbH, Neuherberg, Germany). In addition, it had 2 inner cylindrical channels, each with diameter of 3 mm, one for holding the control medium and the other for holding the dissolved contrast agent in the same medium, to measure PA signal compared to the control medium, as shown in FIG. 2A.
Optical excitation was provided by an optical parametric oscillator (OPO) with a tunable near infra-red (NIR) wavelength range from 680 nm to 980 nm, which is in turn pumped by a Q-switched Nd:YAG laser with a pulse duration of 10 ns and repetition rate of 10 Hz. Light was delivered by a fiber bundle divided into 10 output arms to illuminate the sample from multiple angles around the imaging plane.
Photoacoustic (PA) signals were acquired using a 128-element concave transducer array spanning a circular arc of 270°. […] One transverse image slice was acquired from each laser pulse, resulting in a frame-rate of 10 Hz.
During image acquisition, the sample is translated through the transducer array along its axis across the volume ROI, in order to capture the corresponding transverse image slices. Data from multiple transverse slices across the channel portion which contains the probe and control were recorded. Excitation wavelength scan from 680 to 900 nm with an interval of 10 nm for each transverse slice was applied, and the averaged PA signals from 10 frames for each wavelength and position were recorded.
In addition, PA signal for each contrast agent was spectrally unmixed via linear regression. This allowed isolation of the individual contribution of the contrast agent of interest that may be plotted as a function of concentration, which in turn was used to produce a straight line of best fit based on least-squares regression, for each contrast agent.
This gradient was thereby defined by the inventors as a form of relative PA quantum yield (ϕP), a kind of measure of the efficiency of the conversion of light absorption into photoacoustic signal. This is analogous to fluorescence quantum yield (ϕ), which measures efficiency of the conversion of light absorption into fluorescence emission.
The numbers shown are not absolute values, but arbitrary ratios, which reflect the relative PA strength of one compound against that of another.

[5] = In vivo longitudinal MSOT monitoring of probe biodistribution in mouse xenograft model; details: 0.21 mg/kg tail vein; for time of peak accumulation post injection: tumor site and organs
Procedure: For in vivo imaging, ultrasound gel was applied on the mouse skin surface, and measurements were recorded in temperature-controlled water for good acoustic coupling. An animal holder with a thin polyethylene membrane was used to prevent direct contact between the mouse and the water.
Xenograft mice models were established by injecting subcutaneously into the right flank of mouse, 0.2 mL of cell suspension containing about 5×10^6 to 6×10^6 MCF-7, a human metastatic breast cancer cell line or OSCC, a human oral squamous carcinoma cell line and matrigel (BD biosciences) in 1:1 volume ratio. When the tumor volume reached a palpable size, the mouse was used for in vivo PA imaging.
ZnPc at a dosage of 0.21 mg/kg was injected via a catheter into the tail vein of a subcutaneous tumor bearing mice anaesthetized under isoflurane and the probe biodistribution or uptake was monitored over time in various organs of liver, spleen, kidneys, intestines and tumor using photoacoustic imaging. Before image acquisition, a volume ROI consisting of transverse slices with a step size of 0.3 mm spanning from the liver to the lower abdomen was selected by manual inspection of live MSOT images, and the 6 laser excitation wavelengths of 680, 700, 750, 800, 850 and 900 nm were selected for correspondence with the major turning points in the absorption spectra of ZnPc, oxy-haemoglobin and deoxy-haemoglobin. Multispectral imaging was then performed with 10 signal averages per wavelength per transverse slice, before injection, during injection and 1, 3, 5, and 24 hr post-injection.
Images were reconstructed using a model-based approach as discussed in Rosenthal, A. et al. (Rosenthal, A. et al., Fast semi-analytical model-based acoustic inversion for quantitative optoacoustic tomography. IEEE Trans. Med. Imag. 29, 1275-1285 (2010)) for offline analysis. After image reconstruction, spectral unmixing was performed to resolve individual components from different chromophores in the system. For each pixel in the image, the method fits the total measured optoacoustic spectrum to the known absorption spectra of the individual chromophores, based on least-squares linear regression.
A volume ROI consisting of transverse slices spanning from the liver to the lower abdomen was scanned, and maximum intensity projections (MIPs) based on these slices were constructed for image analysis.
For the later time points, this background subtraction was not possible, as the animal was removed and placed in the MSOT system repeatedly, with repositioning, in order to avoid overdosage of isoflurane for the entire 24-hour duration.

[6] = UV absorbance measurement 680-900 nm; type: physicochemical; details: 680 nm to 900 nm, normalized absorbance, compared among the 5 photosensitizers
Procedure: In order to obtain information about optical absorption properties of the contrast agents, their wavelength-dependent absorption spectra at known concentrations were measured using a spectrophotometer.
In the experiments carried out, wavelength-dependent absorption spectrum of the contrast agents was measured from 680 nm to 900 nm using a spectrophotometer (DU 730, Beckman Coulter), which in turn was used as an input spectrum for multispectral post-processing of photoacoustic signals.
The spectra were normalized to obtain the concentration-independent normalized absorbance (directly proportional to extinction coefficient) as a function of wavelength for each contrast agent (FIG. 1), based on Beer-Lambert law: A(λ)=ln(Io/I)=ε(λ)cl
where A(λ) is the measured wavelength-dependent absorbance, I0 is the incident light intensity, I is the transmitted light intensity, ε(2) is the wavelength-dependent extinction coefficient of the contrast agent, c is the concentration of the contrast agent and l is the path length of the quartz cuvette (1 cm).

Molecule	Concentration of drug in the blood [1] [µM]	Relative PA Quantum yield (ϕP) [4]	tmax, time of peak concentrations ([5]; MIPs t=10 to 60 mins) [h]	time to clearance ([5]; MSOT signal) [h]	time of peak tumor-to-muscle ratio of MSOT signal ([5]; n=4) [h]	time to localization at the tumor post injection ([5]; tumor bearing mice) [min]	time of peak accumulation post injection [5] [h]	time of peak accumulation post injection ([5]; listed as zinc phthalocyanine)	Singlet Oxygen Quantum Yield (ϕΔ) [2]	Fluorescence Quantum Yield (ϕF) [3]	organ biodistribution of MSOT signal ([5]; liver, spleen, kidneys, intestines, tumor)	overall absorbance in the NIR region [6]	Relative PA Quantum yield (ϕP) ([4]; listed as zinc pthalocyanine)	PA signal / photoacoustic activity in phantoms [4]	PA signal / photoacoustic activity in phantoms ([4]; listed as zinc phthalocyanine)	PA signal / photoacoustic activity in phantoms ([4]; listed as zinc pthalocyanine)
CN(C)c1ccc2nc3ccc(=[N+](C)C)cc-3sc2c1 [MB, methylene blue]	1337.00	0.029	–	–	–	–	–	–	0.55 [23]	0.02 [23]	–	–	–	–	–	–
[Zn+2].c1ccc2c(c1)-c1nc-2nc2[n-]c(nc3nc([n-]c4nc(n1)-c1ccccc1-4)-c1ccccc1-3)c1ccccc21 [ZnPc, zinc phthalocyanine]	3.63	–	1	≤ 24	1	≤ 10	1	around 1 hour	0.62 [23]	0.06 [23]	strong in vivo MSOT signal of ZnPc was detected in the reticuloendothelial system (liver, spleen), intestines and tumor site within the first hour after injection; also recorded: high concentrations were found in the liver and intestines up to the 3-hour time point, whereas renal signal was much weaker in comparison	highest overall absorbance	highest relative photoacoustic quantum yield	strongest PA signal in phantoms	highest photoacoustic activity	strongest photoacoustic signal
O=C1C(=C2C(O)=CC(=[N+](Cc3ccccc3)Cc3ccccc3)C=C2O)C([O-])=C1c1c(O)cc(N(Cc2ccccc2)Cc2ccccc2)cc1O [Sq, 2,4-bis[4-(N,N-dibenzylamino)-2,6-dihydroxyphenyl]squaraine]	181.40	0.18	–	–	–	–	–	–	0.61-0.74 [28]	0.037 [27]	–	–	–	–	–	–

More lines, main results first:

Concentration of drug in the blood [1] [µM]	Relative PA Quantum yield (ϕP) [4]	tmax, time of peak concentrations ([5]; MIPs t=10 to 60 mins) [h]	time to clearance ([5]; MSOT signal) [h]	time of peak tumor-to-muscle ratio of MSOT signal ([5]; n=4) [h]	time to localization at the tumor post injection ([5]; tumor bearing mice) [min]	time of peak accumulation post injection [5] [h]	time of peak accumulation post injection ([5]; listed as zinc phthalocyanine)	Molecule	Singlet Oxygen Quantum Yield (ϕΔ) [2]	Fluorescence Quantum Yield (ϕF) [3]	organ biodistribution of MSOT signal ([5]; liver, spleen, kidneys, intestines, tumor)	overall absorbance in the NIR region [6]	Relative PA Quantum yield (ϕP) ([4]; listed as zinc pthalocyanine)	PA signal / photoacoustic activity in phantoms [4]	PA signal / photoacoustic activity in phantoms ([4]; listed as zinc phthalocyanine)	PA signal / photoacoustic activity in phantoms ([4]; listed as zinc pthalocyanine)
88.88	–	–	–	–	–	–	–	C=CC1=C(C)c2cc3[nH]c(cc4nc(cc5[nH]c(cc1n2)c(C)c5CCC(=O)O)C(CCC(=O)O)=C4C)c(C)c3C=C [PpIX, protoporphyrin IX]	–	–	–	–	–	–	–	–
41.90	0.036	–	–	–	–	–	–	chlorin e6 [Ce6]	0.65 [23]	0.19 [23]	–	–	–	–	–	–
